The test system of one data set is PPC-1 cells. Briefly: Binding and internalization of peptide-coated quantum dots by PPC-1 cells (confocal/fluorescence microscopy). Type of data set: cell-based, human. To be noted: excess of RPARPAR-displaying phage.
A further data set concerns 4T1. Briefly: RPARPAR phage binding to cultured cells at 4° C. Type of data set: cell-based. To be noted: 4T1 breast cancer. As for the experimental part:
(§1) FIG. 15A: Binding of RPARPAR (SEQ ID NO:2) phage to the cultured cells at 4° C. in vitro. FIG. 15B: Binding of RPARPAR (SEQ ID NO:2) phage to primary cell suspensions of mouse organs at 4° C. ex vivo. FIGS. 15C and 15D: Tissue distribution of intravenously injected RPARPAR (SEQ ID NO:2) phage after 20 minutes of circulation time. FIG. 15C: Phage was quantified by titration, tissue binding is expressed as fold G7 phage. Statistical analysis was performed by Student's t-test (c). n=3; error bars indicate s.d.; double asterisk, p<0.01, triple asterisk, p<0.001. FIG. 15D (panels d and e): Immunofluorescence localization of T7 phage (light coloring) in lung sections of mice injected intravenously with RPARPAR (SEQ ID NO:2) (d) or G7 (e) phage. Widespread immunoreactivity is present in the lungs of mice injected with RPARPAR (SEQ ID NO:2) (arrowheads in d) but not G7 (with occasional labeling seen in vessels, arrows in e). Scale bar: 50 μm.
(§2) Phage display. For in vivo phage display, mice were injected intravenously with 10^10 plaque-forming units (pfu) of T7 phage followed by perfusion of the circulatory system and determination of the bound phage in target organs by titration. For cell binding studies on cultured cells (in vitro display) and organ-derived cell suspensions (ex vivo display), the cells were incubated with 10^9 pfu of phage at 4° C., washed, lysed, and quantified by titration. Incubation at 37° C. followed by low pH wash (glycine-HCl, pH 2.5) was used to assess the amount of internalized phage.
(§3) For biopanning and phage binding studies (Hoffman, J. A. et al., 2004), cultured cells were grown to confluence and harvested with trypsin and mouse organs were dissociated using Medimachine (BD Biosciences, San Jose, CA). To measure phage binding, 10^6 cells in binding buffer (DMEM containing 1% BSA) were incubated with 10^9 pfu/ml of T7 phage for 1 hour at 4° C. The cells were washed 4 times with the binding buffer, lysed in LB bacterial growth medium containing 1% NP-40, and titrated. Phage internalization assays used the same procedure, except that the cells were incubated with the phage at 37° C., and that an acidic buffer (500 mM sodium chloride, 0.1 M glycine, 1% BSA, pH 2.5) was used instead of binding buffer in the second wash.

The test system of another data set is B16F10. Kind of data set: RPARPAR phage binding to cultured cells at 4° C. Type of data set: cell-based. The conditions noted are these: B16F10 melanoma cells. As for the experimental part: as §1, §2, §3
For data set [1], the system named is MDA-MB-435 human cancer cells. Kind of data set: RPARPAR phage binding to cultured cells at 4° C. Type of data set: cell-based. As for the experimental part: as §1, §2, §3
For a further data set, the system named is MIA PaCa-2. Briefly: RPARPAR phage binding to cultured cells at 4° C. Type of data set: cell-based. The conditions noted are these: MIA PaCa-2 pancreatic carcinoma. As for the experimental part:
as §1, §2, §3

The test system of data set [2] is murine vascular endothelial cells (F2). Briefly: RPARPAR phage binding to cultured cells at 4° C. Type of data set: cell-based. The protocol:
as §1, §2, §3

A short description of data set [3]: Tissue distribution of intravenously injected phage in mice (titration, immunofluorescence). Type of data set: in vivo, mouse. The conditions noted are these: intravenous. The protocol: as §1, §2
In vivo phage homing studies in mice were carried out by injecting 10^10 pfu of T7 phage into tail vein and 10 minutes to 1 hour later, the mice were perfused with DMEM through the left ventricle of the heart. The organs of interest were collected, homogenized in 1% NP40 and the phage was quantified by titration.

The target in data set [4] is T1, triple mutant NS346A-E348A-T349A NRP-1 (Homo sapiens, UniProt O14786, E348A/S346A/T349A).
T1 construct: expressed in transfected cells; host or cells: M21 melanoma cells, transient transfection with lipofectamine; site-directed mutant of the wild-type NRP-1 cDNA in pcDNA3.1(+)
Kind of data set: Phage binding to M21 melanoma cells transfected with NRP-1 binding pocket mutant. Type of data set: cell-based. As for the experimental part:
FIGS. 18A-18C show the identification and validation of NRP-1 as the CendR receptor. FIG. 18A: Affinity chromatography of proteins interacting with RPARPAR (SEQ ID NO: 2) peptide. PPC-1 tumor tissue was extracted with a 200 mM glucopyranoside buffer, and the extract was incubated with RPARPAR-coated (SEQ ID NO:2) beads, followed by extensive washes, and elution with 2 mM free RPARPAR (SEQ ID NO:2) peptide. Note appearance of a 130 kDa band, identified by mass spectroscopy as NRP-1, starting in the fraction 3 of the eluate. Upper panel—a silver stained gel, lower panel—an immunoblot with anti-NRP-1 antibody. FIG. 18B: Binding of RPARPAR (SEQ ID NO:2) phage to M21 melanoma cells transiently transfected with wild-type NRP-1 (NRP-1), triple mutant NS346A-E348A-T349A NRP-1 (Mutant NRP-1), or parental pcDNA3.1plasmid (Vector), and to non-transfected M21 cells. FIG. 18C: (c, d), Confocal immunofluorescence images of NRP-1 and RPARPAR (SEQ ID NO:2) T7 phage in PPC-1 cells incubated with phage at 37° C. for 40 minutes (c) and 3 hours (d). The phage and NRP-1 co-localize extensively, but there appears to be a progressive decrease in the overlap (arrowheads in c and d) and appearance of structures positive for the phage only (arrows, d). (e) Immunostaining and confocal imaging of RPARPAR (SEQ ID NO:2) phage and NRP-1 in M21 cells transiently transfected with NRP-1. […]

T1 sequence (O14786 22-923 S346A/E348A/T349A): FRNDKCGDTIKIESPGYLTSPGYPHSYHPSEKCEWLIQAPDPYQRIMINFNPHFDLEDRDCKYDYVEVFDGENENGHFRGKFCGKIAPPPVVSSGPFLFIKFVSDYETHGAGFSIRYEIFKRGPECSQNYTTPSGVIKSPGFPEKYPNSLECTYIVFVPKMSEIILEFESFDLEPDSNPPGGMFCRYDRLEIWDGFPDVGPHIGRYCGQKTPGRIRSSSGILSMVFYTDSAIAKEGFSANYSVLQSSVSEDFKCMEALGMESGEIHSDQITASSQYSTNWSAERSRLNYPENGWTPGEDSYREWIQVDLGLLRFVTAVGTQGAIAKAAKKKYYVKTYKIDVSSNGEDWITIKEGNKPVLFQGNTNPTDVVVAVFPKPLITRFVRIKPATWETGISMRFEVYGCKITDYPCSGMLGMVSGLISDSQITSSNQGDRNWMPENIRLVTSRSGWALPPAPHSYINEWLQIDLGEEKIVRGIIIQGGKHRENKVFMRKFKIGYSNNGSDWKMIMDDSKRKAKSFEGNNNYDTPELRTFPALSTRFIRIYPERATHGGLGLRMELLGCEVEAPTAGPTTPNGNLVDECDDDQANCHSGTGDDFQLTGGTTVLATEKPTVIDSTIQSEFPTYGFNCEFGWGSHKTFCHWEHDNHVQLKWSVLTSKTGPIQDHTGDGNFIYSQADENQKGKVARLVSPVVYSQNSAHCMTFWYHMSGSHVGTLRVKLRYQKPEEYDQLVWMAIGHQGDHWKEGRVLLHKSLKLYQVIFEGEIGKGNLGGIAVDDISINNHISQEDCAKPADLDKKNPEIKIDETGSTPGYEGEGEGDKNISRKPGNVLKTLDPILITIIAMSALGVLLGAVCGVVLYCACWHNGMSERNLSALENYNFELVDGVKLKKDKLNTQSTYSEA

In the case of RPARPAR [RPARPAR phage], in the data set with PPC-1 cells, the “Effect of pre-incubation of cells with excess phage on RPARPAR-Q-dot internalization” value is recorded as “inhibited”. Moreover, the Phage binding result is reported as “bound” in the data set with 4T1; “bound” in the data set with B16F10; “bound” in data set [1]; “bound” with MIA PaCa-2; “binding was also seen” in data set [2]. For the same substance, in data set [3], the “Penetration into tissue parenchyma (lungs)” value is given as “able to penetrate into tissue parenchyma”. Also, the “Phage immunoreactivity in lung sections” value in data set [3] is on record as “seen throughout the tissue”. In addition, the “Accumulation of intravenously injected phage in the heart” value in data set [3] (20 minutes of circulation) is “to a lesser extent”. For the same substance, the “Accumulation of intravenously injected phage in the lungs” value in data set [3] (20 minutes of circulation) is on record as “accumulated strongly”. In data set [4], the “Phage binding to M21 cells transfected with NRP-1 binding pocket mutant” value is listed as “did not confer”.

The record behind these values is patent US12708673B2, “Methods and compositions related to peptides and proteins with c-terminal elements” (Sanford Burnham Prebys Medical Discovery Institute, priority 2008, dated 2026).
